According to patent US20210322462A1, “WOUND PREVENTION AND/OR TREATMENT AND RELATED COMPOUNDS, MATRICES, COMPOSITIONS, METHODS AND SYSTEMS” (CALIFORNIA INSTITUTE OF TECHNOLOGY, priority 2020, published 2021):

What was measured:
[1] = system: Pseudomonas aeruginosa ΔhflC; experiment: Chlorate sensitivity assay and chlorate quantification, ΔhflC versus wild type; format: cell-based; settings: 1 mM chlorate
Protocol: (§1) Chlorate sensitivity assay was then performed. In particular, to test mutants for chlorate sensitivity, overnight cultures of each strain were grown aerobically in LB with 40 mM KNO3. Cultures were pelleted, washed twice with LB to remove residual KNO3, and resuspended in LB without (control) or with 1 mM NaClO3 to final OD500=1. Cultures were moved to the anaerobic glove box to adapt to anoxia.
[…] At 72 hours, part of the culture was also pelleted, and supernatant collected for quantifying chlorate concentrations via ion chromatography.
(§2) Chlorate quantification was then performed via ion chromatography. In particular, culture samples were pelleted, and the supernatant was diluted 1:10 in dH2O in a 0.5 mL vial (Thermo Fisher Scientific catalog numbers 038010 and 038011). Chlorate concentrations were determined using a Dionex ICS 2000 ion chromatography as described previously (Spero and Newman 2018).) at the Environmental Analysis Center at Caltech.

[2] = system: Pseudomonas aeruginosa ΔnarGHJI; experiment: Chlorate sensitivity assay and chlorate quantification, ΔnarGHJI versus wild type; format: cell-based; settings: 1 mM chlorate, 72 hours
Protocol: as §1
Cultures were incubated at 37° C. for 72 hours, after which they were removed from the anaerobic glove box to determine viable cell counts for calculating percent survival as described previously) (Spero and Newman 2018).). At 72 hours, part of the culture was also pelleted, and supernatant collected for quantifying chlorate concentrations via ion chromatography.
as §2

Structure (SMILES): [O-][Cl+2]([O-])O [chlorate, NaClO3]
- chlorate resistance (% survival) relative to WT ([1]; over the course of 48 hours (FIG. 3A)): more resistant to chlorate than WT
- Nar activity, chlorate reduction (% chlorate remaining) relative to WT ([1]; over the course of 48 hours (FIG. 3B)): lower rates of chlorate reduction
- chlorate resistance (% survival) relative to WT ([2]; anaerobic, 37° C. (FIG. 2A)): more resistant to chlorate than WT
- Nar activity, chlorate reduction (% chlorate remaining) relative to WT ([2]; ion chromatography (FIG. 2B)): lower rates of chlorate reduction
